Reference: US20260042731A1, “(2,4-DICHLOROPHENOXY)ACETIC ACID ANALOGS” (CORTEVA AGRISCIENCE LLC, priority 2022, published 2026)
Like-named read-outs stand apart in the source and are kept apart here.

Legend:
[1] = test system: Amaranthus rudis (AMATA), tall water hemp; test: Postemergence herbicide evaluation, growth of Amaranthus rudis (AMATA); assay type: in vivo; settings: Amaranthus tuberculatus, post-emergence, read-out: Ave. AMATA
[2] = test system: Ambrosia artemisiifolia (AMBEL), common ragweed; test: Postemergence herbicide evaluation, growth of Ambrosia artemisiifolia (AMBEL); assay type: in vivo; settings: Ambrosia artemisiifolia, post-emergence, read-out: AVE. AMBEL
[3] = test system: Chenopodium album (CHEAL), common lambsquarters; test: Postemergence herbicide evaluation, growth of Chenopodium album (CHEAL); assay type: in vivo; settings: Chenopodium album, post-emergence, read-out: Ave. CHEAL
[4] = test system: Abutilon theophrasti (ABUTH), velvetleaf; test: Postemergence herbicide evaluation, growth of Abutilon theophrasti (ABUTH); assay type: in vivo; settings: Abutilon theophrasti, post-emergence, read-out: AVE. ABUTH
[5] = test system: glyphosate resistant Conyza canadensis (L.) (ERICA), horseweed; test: Postemergence herbicide evaluation, growth of Conyza canadensis (ERICA); assay type: in vivo; settings: Erigeron canadensis, post-emergence, read-out: Ave. ERICA
[6] = test system: weeds (ABUTH, AMATA, AMBEL, CHEAL, ERICA); test: Postemergence herbicide evaluation, overall average % weed control across ABUTH, AMATA, AMBEL, CHEAL, ERICA; assay type: in vivo; settings: post-emergence, average over the five weeds, read-out: Overall Ave % Weed Control; for pest or weed control at 280 g/ha: 280 g ae/ha; for pest or weed control at 560 g/ha: 560 g ae/ha
[7] = Volatility of compounds measured by thermogravimetric analysis (TGA); assay type: physicochemical
[8] = 168 h, 280 g ae/ha, 7 DAA, percent reduction in plant size relative to untreated control
[9] = 168 h, 560 g ae/ha, 7 DAA, percent reduction in plant size relative to untreated control
[10] = 336 h, 280 g ae/ha, 14 DAA, percent reduction in plant size relative to untreated control
[11] = 336 h, 560 g ae/ha, 14 DAA, percent reduction in plant size relative to untreated control
[12] = 504 h, 280 g ae/ha, 21 DAA, percent reduction in plant size relative to untreated control
[13] = 504 h, 560 g ae/ha, 21 DAA, percent reduction in plant size relative to untreated control

Cn1c(O)c(C(=O)COc2ccc(Cl)cc2Cl)c2ccccc21 [Compound C1, 2-(2,4-Dichlorophenoxy)-1-(2-hydroxy-1-methyl-1H-indol-3-yl)ethanone]
pest or weed control at 280 g/ha [1, 8]: 63% | pest or weed control at 560 g/ha [1, 9]: 0% | pest or weed control at 280 g/ha [1, 10]: 70% | pest or weed control at 560 g/ha [1, 11]: 0% | pest or weed control at 280 g/ha [1, 12]: 68% | pest or weed control at 560 g/ha [1, 13]: 0% | pest or weed control at 280 g/ha [2, 8]: 48% | pest or weed control at 560 g/ha [2, 9]: 0% | pest or weed control at 280 g/ha [2, 10]: 65% | pest or weed control at 560 g/ha [2, 11]: 0% | pest or weed control at 280 g/ha [2, 12]: 65% | pest or weed control at 560 g/ha [2, 13]: 0% | pest or weed control at 280 g/ha [3, 8]: 68% | pest or weed control at 560 g/ha [3, 9]: 0% | pest or weed control at 280 g/ha [3, 10]: 78% | pest or weed control at 560 g/ha [3, 11]: 0% | pest or weed control at 280 g/ha [3, 12]: 77% | pest or weed control at 560 g/ha [3, 13]: 0% | pest or weed control at 280 g/ha [4, 8]: 68% | pest or weed control at 560 g/ha [4, 9]: 0% | pest or weed control at 280 g/ha [4, 10]: 63% | pest or weed control at 560 g/ha [4, 11]: 0% | pest or weed control at 280 g/ha [4, 12]: 63% | pest or weed control at 560 g/ha [4, 13]: 0% | pest or weed control at 280 g/ha [5, 8]: 60% | pest or weed control at 560 g/ha [5, 9]: 0% | pest or weed control at 280 g/ha [5, 10]: 85% | pest or weed control at 560 g/ha [5, 11]: 0% | pest or weed control at 280 g/ha [5, 12]: 90% | pest or weed control at 560 g/ha [5, 13]: 0% | pest or weed control at 280 g/ha ([6]; 168 h, 7 DAA): 61% | pest or weed control at 560 g/ha ([6]; 168 h, 7 DAA): 0% | pest or weed control at 280 g/ha ([6]; 336 h, 14 DAA): 72% | pest or weed control at 560 g/ha ([6]; 336 h, 14 DAA): 0% | pest or weed control at 280 g/ha ([6]; 504 h, 21 DAA): 72% | pest or weed control at 560 g/ha ([6]; 504 h, 21 DAA): 0% | TGA Data (rate of weight loss, volatility) [7]: 0.7 µg/min

O=C(COc1ccc(Cl)cc1Cl)n1cnc2ccccc21 [Compound D4, 1-(1H-Benzo[d]imidazol-1-yl)-2-(2,4-dichlorophenoxy)ethanone]
pest or weed control at 280 g/ha ([1]; 168 h): 75% | pest or weed control at 560 g/ha ([1]; 168 h): 83% | pest or weed control at 280 g/ha ([1]; 336 h): 75% | pest or weed control at 560 g/ha ([1]; 336 h): 97% | pest or weed control at 280 g/ha ([1]; 504 h): 75% | pest or weed control at 560 g/ha ([1]; 504 h): 95% | pest or weed control at 280 g/ha ([2]; 168 h): 60% | pest or weed control at 560 g/ha ([2]; 168 h): 68% | pest or weed control at 280 g/ha ([2]; 336 h): 85% | pest or weed control at 560 g/ha ([2]; 336 h): 95% | pest or weed control at 280 g/ha ([2]; 504 h): 85% | pest or weed control at 560 g/ha ([2]; 504 h): 98% | pest or weed control at 280 g/ha ([3]; 168 h): 68% | pest or weed control at 560 g/ha ([3]; 168 h): 65% | pest or weed control at 280 g/ha ([3]; 336 h): 75% | pest or weed control at 560 g/ha ([3]; 336 h): 85% | pest or weed control at 280 g/ha ([3]; 504 h): 83% | pest or weed control at 560 g/ha ([3]; 504 h): 93% | pest or weed control at 280 g/ha ([4]; 168 h): 85% | pest or weed control at 560 g/ha ([4]; 168 h): 93% | pest or weed control at 280 g/ha ([4]; 336 h): 95% | pest or weed control at 560 g/ha ([4]; 336 h): 96% | pest or weed control at 280 g/ha ([4]; 504 h): 98% | pest or weed control at 560 g/ha ([4]; 504 h): 98% | pest or weed control at 280 g/ha ([5]; 168 h): 70% | pest or weed control at 560 g/ha ([5]; 168 h): 70% | pest or weed control at 280 g/ha ([5]; 336 h): 83% | pest or weed control at 560 g/ha ([5]; 336 h): 94% | pest or weed control at 280 g/ha ([5]; 504 h): 88% | pest or weed control at 560 g/ha ([5]; 504 h): 99% | pest or weed control at 280 g/ha ([6]; 168 h, 7 DAA): 72% | pest or weed control at 560 g/ha ([6]; 168 h, 7 DAA): 76% | pest or weed control at 280 g/ha ([6]; 336 h, 14 DAA): 83% | pest or weed control at 560 g/ha ([6]; 336 h, 14 DAA): 93% | pest or weed control at 280 g/ha ([6]; 504 h, 21 DAA): 86% | pest or weed control at 560 g/ha ([6]; 504 h, 21 DAA): 97% | TGA Data (rate of weight loss, volatility) [7]: 0.2 µg/min

O=C(COc1ccc(Cl)cc1Cl)Nc1ccc(Cl)cc1 [Compound D6, N-(4-Chlorophenyl)-2-(2,4-dichlorophenoxy)acetamide]
pest or weed control at 280 g/ha ([1]; 168 h): 68% | pest or weed control at 560 g/ha ([1]; 168 h): 63% | pest or weed control at 280 g/ha ([1]; 336 h): 84% | pest or weed control at 560 g/ha ([1]; 336 h): 70% | pest or weed control at 280 g/ha ([1]; 504 h): 80% | pest or weed control at 560 g/ha ([1]; 504 h): 65% | pest or weed control at 280 g/ha ([2]; 168 h): 58% | pest or weed control at 560 g/ha ([2]; 168 h): 58% | pest or weed control at 280 g/ha ([2]; 336 h): 78% | pest or weed control at 560 g/ha ([2]; 336 h): 68% | pest or weed control at 280 g/ha ([2]; 504 h): 88% | pest or weed control at 560 g/ha ([2]; 504 h): 63% | pest or weed control at 280 g/ha ([3]; 168 h): 60% | pest or weed control at 560 g/ha ([3]; 168 h): 73% | pest or weed control at 280 g/ha ([3]; 336 h): 65% | pest or weed control at 560 g/ha ([3]; 336 h): 75% | pest or weed control at 280 g/ha ([3]; 504 h): 68% | pest or weed control at 560 g/ha ([3]; 504 h): 68% | pest or weed control at 280 g/ha ([4]; 168 h): 50% | pest or weed control at 560 g/ha ([4]; 168 h): 60% | pest or weed control at 280 g/ha ([4]; 336 h): 33% | pest or weed control at 560 g/ha ([4]; 336 h): 58% | pest or weed control at 280 g/ha ([4]; 504 h): 35% | pest or weed control at 560 g/ha ([4]; 504 h): 53% | pest or weed control at 280 g/ha ([5]; 168 h): 65% | pest or weed control at 560 g/ha ([5]; 168 h): 60% | pest or weed control at 280 g/ha ([5]; 336 h): 83% | pest or weed control at 560 g/ha ([5]; 336 h): 78% | pest or weed control at 280 g/ha ([5]; 504 h): 83% | pest or weed control at 560 g/ha ([5]; 504 h): 75% | pest or weed control at 280 g/ha ([6]; 168 h, 7 DAA): 60% | pest or weed control at 560 g/ha ([6]; 168 h, 7 DAA): 63% | pest or weed control at 280 g/ha ([6]; 336 h, 14 DAA): 68% | pest or weed control at 560 g/ha ([6]; 336 h, 14 DAA): 70% | pest or weed control at 280 g/ha ([6]; 504 h, 21 DAA): 71% | pest or weed control at 560 g/ha ([6]; 504 h, 21 DAA): 65% | TGA Data (rate of weight loss, volatility) [7]: 0.02 µg/min
